In patent US8101612B2, “Phthalazine compounds and methods of use” (Amgen Inc., priority 2006, dated 2012):

Legend:
[1] = test system: THP1 cells (LPS-induced TNF-α secretion); assay: Lipopolysaccharide-activated THP1 cell TNF production assay; assay type: cell-based; settings: Homo sapiens, THP-1
Experimental: Lipopolysaccharide-Activated THP1 Cell TNF Production Assay
THP1 cells are resuspended in fresh THP1 media (RPMI 1640, 10% heat-inactivated FBS, 1XPGS, 1XNEAA, plus 30 μM βME) at a concentration of 1E6/mL. One hundred microliters of cells per well are plated in a polystyrene 96-well tissue culture. One microgram per mL of bacterial LPS is prepared in THP1 media and is transferred to the wells. Test compounds are dissolved in 100% DMSO and are serially diluted 3-fold in a polypropylene 96-well microtiter plate (drug plate). HI control and LO control wells contain only DMSO. One microliter of test compound from the drug plate followed by 10 μL of LPS are transferred to the cell plate. The treated cells are induced to synthesize and secrete TNF-α at 37° C. for 3 h. Forty microliters of conditioned media are transferred to a 96-well polypropylene plate containing 110 μL of ECL buffer (50 mM Tris-HCl pH 8.0, 100 mM NaCl, 0.05% Tween 20, 0.05% NaN3 and 1% FBS) supplemented with 0.44 nM MAB610 monoclonal Ab (R&D Systems), 0.34 nM ruthenylated AF210NA polyclonal Ab (R&D Systems) and 44 μg/mL sheep anti-mouse M280 Dynabeads (Dynal). After a 2 h incubation at room temperature with shaking, the reaction is read on the ECL M8 Instrument (IGEN Inc.). A low voltage is applied to the ruthenylated TNF-α immune complexes, which in the presence of TPA (the active component in Origlo), results in a cyclical redox reaction generating light at […]. The amount of secreted TNF-α in the presence of compound compared with that in the presence of DMSO vehicle alone (HI control) is calculated using the formula: % control (POC)=(cpd−average LO)/(average HI−average LO)*100. Data (consisting of POC and inhibitor concentration in μM) is fitted to a 4-parameter equation (y=A+((B−A)/(1+((x/C)^D))), where A is the minimum y (POC) value, B is the maximum y (POC), C is the x (cpd concentration) at the point of inflection and D is the slope factor) using a Levenburg-Marquardt non-linear regression algorithm.

[2] = AA2734_IC50_IP (Table 4, assay code not explained); settings: internal assay code
[3] = AA5225_IC50_IP (Table 4, assay code not explained); settings: internal assay code
[4] = test system: production of TNF by monocytes activated with bacterial lipopolysaccharide (LPS); assay: Lipopolysaccharide-activated monocyte TNF production assay (whole blood monocyte assay, LPS induced TNF release); assay type: cell-based; settings: Homo sapiens
Experimental: Lipopolysaccharide-Activated Monocyte TNF Production Assay
Test compounds were evaluated in vitro for the ability to inhibit the production of TNF by monocytes activated with bacterial lipopolysaccharide (LPS). Fresh residual source leukocytes (a byproduct of plateletpheresis) were obtained from a local blood bank, and peripheral blood mononuclear cells (PBMCs) were isolated by density gradient centrifugation on Ficol-Paque Plus (Pharmacia). PBMCs were suspended at 2×10^6/mL in DMEM supplemented to contain 2% FCS, 10 mM, 0.3 mg/mL […], 100 U/mL penicillin G and […] streptomycin sulfate (complete media). Cells were plated into Falcon flat bottom, 96 well culture plates (200 μL/well) and cultured overnight at 37° C. and 6% CO2. Non-adherent cells were removed by washing with 200 μl/well of fresh medium. Wells containing adherent cells (˜70% monocytes) were replenished with 100 μL of fresh medium.
Preparation of Test Compound Stock Solutions
Test compounds were dissolved in […]. Compound stock solutions were prepared to an initial concentration of […]. Stocks were diluted initially to 20-200 μM in complete media. Nine two-fold serial dilutions of each compound were then prepared in complete medium.
Treatment of Cells with Test Compounds and Activation of TNF Production with Lipopolysaccharide
One hundred microliters of each test compound dilution were added to microtiter wells containing adherent monocytes and 100 μL complete medium. Monocytes were cultured with test compounds for 60 min at which time 25 μL of complete medium containing 30 ng/mL lipopolysaccharide from E. coli K532 were added to each well. Cells were cultured an additional 4 hrs. Culture supernatants were then removed and TNF presence in the supernatants was quantified using an ELISA.
Flat bottom, 96 well Corning High Binding ELISA plates were coated overnight (4° C.) with 150 μL/well of 3 μg/mL murine anti-human TNF-α MAb (R&D Systems #MAB210). Wells were then blocked for 1 h at room temperature with 200 μL/well of CaCl2-free ELISA buffer supplemented to contain 20 mg/mL BSA (standard ELISA buffer: […], 150 mM NaCl, 2 mM CaCl2, 0.15 mM thimerosal, pH 7.4). Plates were washed and replenished with 100 μL of test supernatants (diluted 1:3) or standards. Standards consisted of eleven 1.5-fold serial dilutions from a stock of 1 ng/mL recombinant human TNF (R&D Systems). Plates were incubated at room temperature for 1 h on orbital shaker (300 rpm), washed and replenished with 100 μL/well of 0.5 μg/mL goat anti-human TNF-α (R&D systems #AB-210-NA) biotinylated at a 4:1 ratio. Plates were incubated for 40 min, washed and replenished with 100 μL/well of alkaline phosphatase-conjugated streptavidin (Jackson ImmunoResearch #016-050-084) at 0.02 μg/mL. Plates were incubated 30 min, washed and replenished with 200 μL/well of 1 mg/mL of p-nitrophenyl phosphate. After 30 min, plates were read at 405 nm on a Vmax plate reader.

Compound | IC50 [1] [nM] | IC50 [2] [nM] | IC50 [3] [nM] | IC50 [4] [nM]
Cc1ccc(C(=O)Nc2ccnn2C)cc1-c1ccc2c(OCC(F)(F)F)nncc2c1 [Example 2, 4-Methyl-N-(1-methyl-1H-pyrazol-5-yl)-3-(1-(2,2,2-trifluoroethoxy)phthalazin-6-yl)benzamide] | ≤ 10 |  |  | 
Cc1ccc(C(=O)NC2CC2)cc1-c1ccc2c([C@H](C)C(F)(F)F)nncc2c1 [Example 227b, N-cyclopropyl-4-methyl-3-(1-((1S)-2,2,2-trifluoro-1-methylethyl)-6-phthalazinyl)benzamide] |  | 0.33 | 1.61 | ≤ 10
Cc1ccc(C(=O)NC2CC2)cc1-c1ccc2c(OC(CF)CF)nncc2c1 [Example 49, N-cyclopropyl-3-(1-((2-fluoro-1-(fluoromethyl)ethyl)oxy)-6-phthalazinyl)-4-methylbenzamide] | ≤ 100 |  |  | 
CC(C)Nc1nncc2cc(-c3cc(C(=O)NC4CC4)ccc3Cl)ccc12 [Example 23, 4-chloro-N-cyclopropyl-3-(1-((1-methylethyl)amino)-6-phthalazinyl)benzamide] | ≤ 10 |  |  | 
Cc1ccc(C(=O)NC2CC2)cc1-c1ccc2c(-c3cc(F)c(S(C)(=O)=O)cc3C)nncc2c1 [Example 223, N-cyclopropyl-3-(1-(5-fluoro-2-methyl-4-(methylsulfonyl)phenyl)-6-phthalazinyl)-4-methylbenzamide] |  | 1.22 | 0.854 | ≤ 10
CC(C)Oc1nncc2cc(-c3cc(C(N)=O)ccc3Cl)ccc12 [Example 25, 4-chloro-3-(1-((1-methylethyl)oxy)-6-phthalazinyl)benzamide] | ≤ 10 |  |  | 
Cc1ccc(C(=O)NC(C)C)cc1-c1ccc2c(O[C@H](C)C(F)(F)F)nncc2c1 [Example 41, 4-methyl-N-(1-methylethyl)-3-(1-(((1R)-2,2,2-trifluoro-1-methylethyl)oxy)-6-phthalazinyl)benzamide] |  |  |  | ≤ 100
Cc1ccc(C(=O)Nc2ccon2)cc1-c1ccc2c(NC(C)C)nncc2c1 [Example 13, N-3-isoxazolyl-4-methyl-3-(1-((1-methylethyl)amino)-6-phthalazinyl)benzamide] |  |  |  | ≤ 10
Cc1ccc(C(=O)NC(C)C)cc1-c1ccc2c(C(C)C)nncc2c1 [Example 39, 4-methyl-N-(1-methylethyl)-3-(1-(1-methylethyl)-6-phthalazinyl)benzamide] |  |  |  | ≤ 10
Cc1ccc(C(N)=O)cc1-c1ccc2c(N3CCC[C@H]3C(C)(C)C)nncc2c1 [Example 35, 3-(1-((2S)-2-(1,1-dimethylethyl)-1-pyrrolidinyl)-6-phthalazinyl)-4-methylbenzamide] |  |  |  | ≤ 10
Cc1ccc(C(=O)NC2(C)CC2)cc1-c1ccc2c(N3CCC[C@@H]3C)nncc2c1 [Example 66, 4-methyl-N-(1-methylcyclopropyl)-3-(1-((2S)-2-methyl-1-pyrrolidinyl)-6-phthalazinyl)benzamide] |  |  |  | ≤ 10
CCn1nccc1NC(=O)c1ccc(C)c(-c2ccc3c(NC(C)C)nncc3c2)c1 [Example 3, N-(1-Ethyl-1H-pyrazol-5-yl)-3-(1-(isopropylamino)phthalazin-6-yl)-4-methylbenzamide] | ≤ 10 |  |  | ≤ 10
Cc1ccc(C(=O)Nc2ccnn2C)cc1-c1ccc2c(-c3ccccc3C)nncc2c1 [Example 5, 4-methyl-N-(1-methyl-1H-pyrazol-5-yl)-3-(1-o-tolylphthalazin-6-yl)benzamide] | ≤ 10 |  |  | ≤ 10
Cc1ccc(C(=O)NCC(F)(F)F)cc1-c1ccc2c(NC(C)C)nncc2c1 [Example 29, 4-methyl-3-(1-((1-methylethyl)amino)-6-phthalazinyl)-N-(2,2,2-trifluoroethyl)benzamide] |  |  |  | ≤ 10
